Legend:
[1] = Thiol Vapor Pressure Suppression (TVPS) index, headspace butanethiol by zNose fast GC; assay type: physicochemical; conditions: 5 µl compound vs 100 µl of 1% v/v butanethiol in ethanol, 37 °C for 4 hours; percentage reduction in butanethiol peak area
Source text: Thiol Vapor Pressure Suppression (TVPS) index is a measure of the reduction in butanethiol concentration in the headspace by a compound, as measured using a fast GC instrument, the zNose 7100 (Electronic Sensor Technologies, Newbury Park, CA). Before any measurements the instrument is calibrated according to manufacturer's instructions under the same experimental settings. The instrument has a DB-5 column (EST Part No.SYS7100C5, Electronic Sensor Technologies, Newbury Park, CA) 1 m in length, 0.25 µm phase thickness, and 0.25mm in diameter. […]
TVPS of a compound is measured in the following way: 100 µl ± 1 µl of a 1% v/v butanethiol (99%, purity) solution in ethanol (200 proof) is added into a 1 ml vial (8 x 40 mm). […]
The amount of butanethiol in the headspace is measured from the area of the peak on the chromatograph for butanethiol (ABtSH,Rx). To calculate the percentage of butanethiol reduction in the headspace, a control with the butanethiol solution without the volatile material is run in the same manner and the area is measured as well (ABtSH,C). TVPS is then measured as the percentage reduction in butanethiol area calculated using the following formula: TVPS = (ABtSH,C −ABtSH,Rx)/(ABtSH,C) × 100 [formula]

[2] = Solubility of Vitamin B5 derivatives in anhydrous stick formulations; assay type: physicochemical
Source text: Additional considerations regarding exemplary Vitamin B5 derivatives may apply. For example, in order to deliver Vitamin B5 (or a derivative thereof) from an anhydrous, hydrophobic, glycol free and antiperspirant free cosmetic stick, a corresponding matrix soluble form or derivative of Vitamin B5 must be used to achieve the desired benefits of hair softening, shave bump reduction and wound healing from shave cut damage. For example, if an incompatible or insoluble form of Vitamin B5 is used, such as panthenol, this will not form a homogenous one phase solution when the ingredients are blended and heated together from the melt.
As such, the Vitamin B5 derivative utilized should be soluble in the anhydrous, hydrophobic, glycol free and antiperspirant free matrix.

Solublility in hydrophobic Anhydrous, glycol free, antiperspirant free Stick formulations [2]	Compound	TVPS [1]
	CC(C)c1cccc(C(C)CC=O)c1 (stereo not drawn) [Florhydral]	50.5
Soluble	CC(=O)OCCCNC(=O)[C@H](OC(C)=O)C(C)(C)COC(C)=O [Panthenyl Triacetate]	
Soluble	Panthenyl Ethyl Ether	
